Entries after “also recorded” stand apart in the source; their conditions may differ. Where only a bound is given, the exact number is not on record here.

Here are results for one compound from patent US20090054403A1, “Treatment of Post-Traumatic Stress Disorder” (priority 2007, published 2009).

Data set [1] concerns blood pressure, heart rate, motor activity. Put plainly: Radio-telemetry blood pressure, heart rate, motor activity in normotensive rats, 7 days. The class given is in vivo, normotensive Wistar rats (Crl:COBS(WI)BR). As for the experimental part:
Male Crl:COBS(WI)BR rats of 15 weeks old were used. Twenty-four rats were chronically implanted with telemetry implants (TA11PA-C40, Data Sciences, Inc., St. Paul, Minn.) for measurement of arterial blood pressure, heart rate and motor activity. The rat was anesthetized with pentobarbital sodium (60 mg/kg, ip) and its abdomen shaved. Under aseptic conditions, an incision was made on midline. The abdominal aorta was exposed, and cannulated with the catheter of a telemetry transmitter unit. After the transmitter was sutured to the abdominal musculature, the skin was closed. Each rat was allowed to recover for at least 2 weeks before being subjected to drug administration. Three days prior to the start of the experiment, the rats were randomly divided into 4 treatment groups: Vehicle (p.o.), Hydralazine (10 mg/kg, p.o.), nepicastat (30 mg/kg, p.o.), nepicastat (100 mg/kg, p.o.).
Systolic blood pressure (SBP), diastolic blood pressure (DBP), mean blood pressure (MBP), heart rate (HR), and motor activity (MA) were monitored. After the pre-dose values for these parameters were established, respective groups of rats received a 7 day daily treatment of vehicle, nepicastat or hydralazine.
Both nepicastat and hydralazine were prepared in water with traces of Tween 80. All doses were given orally to the rat in 10 ml/kg and were expressed as free base equivalents.
A computerized data collection system was used to continuously collect data on SBP, DBP, MBP, HR, and MA. Data on each rat were collected every 5 min. for 10 sec. These were then averaged hourly and standard errors of the mean (SE) calculated. In this report, only data on MBP, HR and MA were presented. […] Body weights were recorded daily.

The next data set has as its target alpha1 receptors. Put plainly: Radioligand filtration binding (Example 19). As for the experimental part: (§1) The affinity of nepicastat was determined in the bindings assays outlined in FIG. 97. Standard radioligand filtration binding methods were used. Competition binding data were analyzed by iterative curve fitting to a four parameter logistic equation. Hill coefficients and IC50 were obtained directly. pKi (−log of Ki) of competing ligands were calculated from IC50 values using the Cheng-Prusoff equation.

The target of data set [2] is all other receptors examined. Put plainly: Radioligand filtration binding (Example 19). As for the experimental part:
as §1

A further data set concerns mice. Put plainly: Gross motor behavior and locomotor activity after acute dosing. It is filed as in vivo.
The subject of the next data set is parkinsonian symptoms. Put plainly: Parkinsonian clinical rating scale (CRS) in MPTP-lesioned monkeys. The class given is in vivo, squirrel monkeys (Saimiri sciureus). As to conditions: hydrochloride. As for the experimental part: A total of 24 squirrel monkeys (Saimiri sciureus), fourteen females and ten males were used in this study. The twenty-four animals were randomly assigned to one of four treatment groups, with 6 animals per group. The groups consisted of the following (1) group A: placebo (2) group B: 1 mg/kg/day; (3) group C: 4 mg/kg/day; and (4) group D: 10 mg/kg/day. In Group B, one animal died acutely following MPTP-lesioning, and was not replaced.
Animals were lesioned by the administration of MPTP at a concentration of 2.0 mg/kg (free-base) via subcutaneous injection to achieve a parkinsonian state (see FIGS. 151-156). A post-MPTP lesioning behavioral assessment was carried out 2 to 4 weeks after the last MPTP-Iesioning. Locomotor activity was monitored by IRAM in 60-minute sessions for 3 to 5 days. Clinical behavior (CAS) was assessed by one to three individuals rating over a period of 3 to 5 days.
Animals were tested for response to L-Dopa and the efficacy of drug nepicastat. Testing was carried out 4 to 12 weeks after the last MPTP dose. Twenty-tour squirrel monkeys were randomly assigned to 4 groups; Group A (6 animals) received placebo (water) treatment; Group B (5 animals) received drug nepicastat at 1 mg/kg/day (0.5 mg/kg twice daily); Group C (6 animals) received 4 mg/kg/day (2 mg/kg twice daily); and Group D (6 animals) received 10 mg/kg/day (5 mg/kg twice daily).
L-Dopa was administered at a concentration of either 2.5, 5, or 7.5 mg/kg by oral gavage twice daily (at 10 am and 2 pm) for 7 consecutive days. Behavior was determined by IRAM and CRS. Clinical rating was carried out 60 to 90 minutes following the 10 am morning dose on the last 4 days of treatment. Raters (one to three individuals) were blinded to the different treatment groups. IRAM assessment were preformed for 90 minutes immediately following drug administration at 2 pm on the last 2 to 5 days of drug treatment. There was a minimum 2 day washout period between each treatment dose.
Drug nepicastat or water (as placebo) was administered for 12 days following a minimum 2 day washout after L-Dopa dosing. Drug was administered twice daily at 10 am and 2 pm by oral gavage. Behavior was rated by IRAM and CRS. The CRS was conducted in the morning, 60 to 90 minutes after the 10 am dose of nepicastat on the last 5 days of drug treatment. Raters (one to three individuals) were blinded to the different treatment groups. IRAM assessments were preformed for 90 minutes immediately following drug administration at 2 pm on the last 5 days of drug treatment.
Eight parkinsonian features were rated in each animal and the total score was derived from the sum of these eight features. […]

By pKi is commonly meant the negative decadic logarithm of the Ki, by convention in mol/L. The low end stands for a high Ki, the high end for a low Ki. On to `Cl.NCc1c[nH]c(=S)n1[C@H]1CCc2c(F)cc(F)cc2C1` [nepicastat, (S)-5-Aminomethyl-1-(5,7-difluoro-1,2,3,4-tetrahydronaphth-2-yl)-2,3-dihydro-2-thioxo-1H-imidazole hydrochloride], for which the “peak decrease in blood pressure (peak hypotensive effect)” value in data set [1] (30 mg/kg/d po, day 2 at hour 13) is listed as −10 mmHg. Further, the “peak antihypertensive response on day 1” value in data set [1] (100 mg/kg po, 22 hr after dosing) is given as −11 mmHg. The bradycardic response in data set [1] (100 mg/kg, day 2, 3 hours after dosing) is −100 b/mm. Also, the “effect on HR” value in data set [1] (nepicastat 30 and 100 mg/kg (day 1), hydralazine 10 mg/kg (throughout)) is recorded as “did not consistently affect HR on day 1”. Moreover, the pKi at alpha1 receptors was 6.9-6.7; in data set [2], < 6.2. Further, the gross motor behavior result in the data set with mice (1.0-30 mg/kg p.o., acute) is recorded as “no significant effects on gross motor behavior”. Further, the locomotor activity result with mice (10-100 mg/kg i.p.) is on record as “did not effect locomotor activity”. For the same compound, in the data set on parkinsonian symptoms (1, 4, 10 mg/kg/day, 12 days, non-pairwise), the “CRS / parkinsonian symptoms compared to placebo” value is “no detectable differences; also recorded: no significant effect”. Also, the “CRS / parkinsonian symptoms compared to post-MPTP (pre-treatment) state” value in the data set with parkinsonian symptoms (nepicastat 4 and 10 mg/kg/day, pairwise) is “significant improvement; also recorded: significant effect”.
